From patent publication US7083969B2, “Serratia marcescens strain” (Korea Research Institute of Bioscience and Biotechnology, priority 1997, dated 2006)

Experiments:
[1] = Weight ratio of the spleen to the body (toxicity); type: in vivo, mice
Experimental: (§1) A T cell-dependent immune response reaction was used to assess the influence of prodigiosin on T lymphocytes in vivo. Test animals were immunized with sheep red blood cells by peritoneal injection. 4 days after the immunization, the number of the antibody producing cells was counted. Prodigiosin was peritoneally injected everyday. Based on the number of the […] cells in the non-treated animals, the influence of prodigiosin on T lymphocytes in vivo was assessed as percentage. Also, the weight ratio of the spleen to the body was measured to assay the toxicity of prodigiosin to the animals. Cyclophosphamide was used as a positive control.

T lymphocytes [2] = experiment: T cell-dependent immune response in vivo (antibody producing cells after sheep red blood cell immunization); parameters: species or system mice; settings: for Immune Response (%): 4 days after immunization
Text: (§2) Germ-free test animals, mice BDF1 and B6C3F1, obtained from Genetic Resources Center, Korean Research Institute of Bioscience and Biotechnology in the Korean Institute of Science and Technology, were used for the assay of the immunosuppressive activity of prodigiosin. […] At such concentrations as show no cytotoxic effects, prodigiosin cannot suppress the immune response of B lymphocytes. […] This selective immunosuppression for T lymphocytes is not ascribed to the selective cytotoxicity for T lymphocytes. The same immunosuppression results as in the ex vivo experiments were obtained in in vivo experiments. When T lymphocyte activity was measured by use of a graft versus host reaction and a T cell-dependent antibody producing reaction, the prodigiosin suppressed the immune response, but exerted no toxicity on animals. Therefore, the immunosuppressive activity of the prodigiosin is thought to be attributed to the selective suppression for T lymphocyte activity.
as §1

T lymphocytes [3] = experiment: Graft versus host reaction in vivo (lymphatic node weight); parameters: species or system BDF1 mice; settings: for Wt. (mg) of Lymphatic node: sixth day after transplantation
Text: as §2
A graft versus host reaction was utilized for the in vivo assay of prodigiosin's immunosuppression. The graft versus host reaction enables an assessment of the immune response of T lymphocytes. On the sixth day after transplantation of the T lymphocytes of BDF1 mice different in histocompatibility antigen, the lymphatic nodes were measured for weight, thereby assessing the immune response of T lymphocyte to the grafted heteroantigens. The prodigiosin was peritoneally injected at a dose of 30–100 mg per kg of body weight for five days while cyclophosphamide, as a positive control, was peritoneally injected at a dose of 100 mg/kg for five days. The body weights of the injected mice were measured to compare the toxicity of prodigiosin with that of cyclophosphamide. […] As for the body weight, it was not changed in the mice injected with prodigiosin at an effective concentration.

B lymphocyte = experiment: Antibody production of B lymphocytes stimulated with lipopolysaccharide; type: cell-based, mice; settings: for effect on antibody production / immune response of B lymphocytes (words): non-cytotoxic concentration range (3-100 nM)
Text: as §2
(§3) The influence of prodigiosin on the functions of lymphocytes was measured using three reaction systems. First, the ability of B lymphocyte to proliferate in response to lipopolysaccharide stimulus was assessed. For this, on the third day after stimulation with lipopolysaccharide, the antibody production of the B lymphocyte was measured. When B lymphocytes are stimulated with lipopolysaccharide, they can produce antibodies without the aid of T lymphocyte. Second, a mixed lymphocyte reaction was induced in order to assess the effect on T-cell response. The reaction needs no aids from the B lymphocyte. On the third day after two types of heteroimmune cells, which are different from each other in histocompatibility antigen, were mixed to stimulate the activity of T lymphocytes, the T-cell response-was assessed. Third, the T-cell dependent antibody producing reaction was utilized to assess the effect of prodigiosin on the simultaneous immune response of both of the B and T lymphocytes. This reaction requires the functions of B and T lymphocytes, simultaneously. On the fifth day after immunization of the lymphocytes with the red blood cells of sheep, their antibody production ability was assessed.
(§4) In Table 3, the values are relative to the immune response of the lymphocytes untreated with prodigiosin.

T lymphocyte = experiment: Concanavalin A-induced T lymphocyte proliferation (DNA synthesis); type: cell-based, mice; settings: for Proliferation (%) T cell: three days
Text: as §2
(§5) Three standard substances which induce lymphocytes to proliferate were employed to measure the effect of the prodigiosin on proliferation of lymphocytes. 5 μg/ml of lipopolysaccharide were used to induce B lymphocyte to proliferate, 5 μg/ml of Concanavalin A for T lymphocyte and 5 μg/ml of Pokeweed mitogen for B and T lymphocytes, both. Prodigiosin was added, together with the proliferation-inducing substance. Three days after the addition, the proliferation effect was monitored by measuring the amount of DNA synthesized. In order to exclude the cytotoxicity of prodigiosin, it was used at a concentration of not more than 100 nM. In Table 2, the proliferation percentages mean the proliferated amounts of prodigiosin-treated lymphocytes relative to that of an non-treated group. As shown, the suppression percentage effected by prodigiosin in amounts of 30–100 nM reaches up to 96–98% for the T lymphocyte induced by concanavalin A while the proliferation of B lymphocyte induced by lipopolysaccharide and the proliferation of B/T lymphocytes induced by pokeweed mitogen are suppressed to the extent of 13–19% and 45–83%, respectively.

B and T lymphocytes = experiment: Pokeweed mitogen-induced B and T lymphocyte proliferation (DNA synthesis); type: cell-based, mice; settings: for Proliferation (%) B/T cells: three days
Text: as §2, §5

[4] = test system: CD4 T cell (helper T cell); experiment: Selective cytotoxicity: proportion of CD4 T cells after treatment; type: cell-based, mice; settings: proportion of the cells
Text: as §2
Whether the selective immunosuppression of prodigiosin for T cells is attributed to the selective cytotoxicity for T cells or not was assayed by measuring the proportion of the cells. On the third day after treatment of the immune cells with prodigiosin, the number of the cells was counted. Because T lymphocytes consist of CD4 T cell (helper T cell) and CD8 T cell (cytotoxic T cell), the proportion of T and B lymphocytes was calculated in this Example.

T lymphocytes [5] = experiment: Mixed lymphocyte reaction (T-cell response); type: cell-based, mice; settings: for Immune Response (%) T cell: third day
Text: as §2, §3, §4

What does the source list for `CCCCCC1=C/C(=C/c2[nH]c(-c3ccc[nH]3)cc2OC)N=C1C` [Prodigiosin, prodigiosin]?
Wt. Ratio of spleen/body (%) ([1]; 10 mg/kg peritoneally everyday): 95%; Wt. Ratio of spleen/body (%) ([1]; 30 mg/kg peritoneally everyday): 84%; toxicity judged by weight ratio of the spleen to the body ([1]; at effective concentrations): no toxicity; Immune Response (%) (T lymphocytes [2]; 10 mg/kg peritoneally everyday, antibody producing cells vs non-treated animals): 32%; Immune Response (%) (T lymphocytes [2]; 30 mg/kg peritoneally everyday): 27%; number of the antibody-producing cells (T lymphocytes [2]; peritoneal injection everyday): significantly reduced; Wt. (mg) of Lymphatic node (T lymphocytes [3]; 10 mg/kg peritoneally for five days): 1.12 mg; Wt. (mg) of Lymphatic node (T lymphocytes [3]; 30 mg/kg peritoneally for five days): 0.98 mg; immune response of T lymphocytes in graft versus host reaction (T lymphocytes [3]; peritoneal injection for five days): potentially suppress; Immune Response (%) B cell (B lymphocyte; 3 nM, antibody production, third day after lipopolysaccharide, relative to untreated lymphocytes): 116%; Immune Response (%) B cell (B lymphocyte; 10 nM, third day): 108%; Immune Response (%) B cell (B lymphocyte; 30 nM, third day): 100%; Immune Response (%) B cell (B lymphocyte; 100 nM, third day): 97%; effect on antibody production / immune response of B lymphocytes (words) (B lymphocyte): no influence; effect on antibody production / immune response of B lymphocytes (words) (B lymphocyte; listed as prodigiosin): not at all; Proliferation (%) T cell (T lymphocyte; 3 nM, 5 μg/ml Concanavalin A, relative to non-treated group): 77%; Proliferation (%) T cell (T lymphocyte; 10 nM, Concanavalin A): 46%; Proliferation (%) T cell (T lymphocyte; 30 nM, Concanavalin A): 4%; Proliferation (%) T cell (T lymphocyte; 100 nM, Concanavalin A): 2%; suppression percentage, T lymphocyte induced by concanavalin A (T lymphocyte; 30–100 nM): 96–98%; effect on proliferation and activity of T lymphocytes (T lymphocyte; non-cytotoxic concentrations): potential suppressive effect; Proliferation (%) B/T cells (B and T lymphocytes; 3 nM, 5 μg/ml Pokeweed mitogen, relative to non-treated group): 100%; Proliferation (%) B/T cells (B and T lymphocytes; 10 nM, Pokeweed mitogen): 86%; Proliferation (%) B/T cells (B and T lymphocytes; 30 nM, Pokeweed mitogen): 55%; Proliferation (%) B/T cells (B and T lymphocytes; 100 nM, Pokeweed mitogen): 17%; suppression of proliferation of B/T lymphocytes induced by pokeweed mitogen (B and T lymphocytes; 30–100 nM): 45–83%; Proliferation (%) CD4 T cell ([4]; 3 nM, third day after treatment): 31%; Proliferation (%) CD4 T cell ([4]; 10 nM, third day): 31%; Proliferation (%) CD4 T cell ([4]; 30 nM, third day): 31%; Proliferation (%) CD4 T cell ([4]; 100 nM, third day): 29%; Immune Response (%) T cell (T lymphocytes [5]; 3 nM, mixed lymphocyte reaction, relative to untreated lymphocytes): 111%; Immune Response (%) T cell (T lymphocytes [5]; 10 nM): 110%; Immune Response (%) T cell (T lymphocytes [5]; 30 nM): 67%; Immune Response (%) T cell (T lymphocytes [5]; 100 nM): 30%; immune response in which T lymphocytes are involved (T lymphocytes [5]; Table 3 concentration range): significantly suppressed
